{"source": "ChEMBL document CHEMBL1155237", "about": "“Selective inhibitors of the mutant B-Raf pathway: discovery of a potent and orally bioavailable aminoisoquinoline” (J Med Chem, 2009)", "key": {"[1]": {"target": "Wee1-like protein kinase (Homo sapiens) (UniProt P30291)", "assay": "Inhibition of WEE1 assessed as enzyme activity at 1 uM relative to untreated control", "design": "scale not given: the % may be the effect or the level left"}, "[2]": {"target": "Mitogen-activated protein kinase kinase kinase 10 (Homo sapiens) (UniProt Q02779)", "assay": "Inhibition of MLK2 assessed as enzyme activity at 1 uM relative to untreated control", "design": "scale not given: the % may be the effect or the level left"}, "[3]": {"target": "Epidermal growth factor receptor (Homo sapiens) (UniProt P04626+P00533+Q15303+P21860)", "assay": "Inhibition of EGFR S752-I759del mutant assessed as enzyme activity at 1 uM relative to untreated control", "assay_type": "protein assay", "design": "scale not given: the % may be the effect or the level left"}, "[4]": {"target": "Uncharacterized serine/threonine-protein kinase SBK3 (Homo sapiens) (UniProt P0C264)", "sequence (P0C264 whole entry)": "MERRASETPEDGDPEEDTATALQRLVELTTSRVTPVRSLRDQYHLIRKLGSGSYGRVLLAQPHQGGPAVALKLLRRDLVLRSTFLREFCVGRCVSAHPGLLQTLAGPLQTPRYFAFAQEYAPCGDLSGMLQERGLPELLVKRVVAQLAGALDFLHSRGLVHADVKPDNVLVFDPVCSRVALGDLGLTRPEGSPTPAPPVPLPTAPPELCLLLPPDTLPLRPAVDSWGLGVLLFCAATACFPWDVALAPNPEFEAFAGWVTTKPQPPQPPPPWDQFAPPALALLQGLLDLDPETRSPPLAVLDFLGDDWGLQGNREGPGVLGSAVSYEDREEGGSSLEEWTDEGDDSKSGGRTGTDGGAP", "assay": "Inhibition of SgK110 assessed as enzyme activity at 1 uM relative to untreated control", "design": "scale not given: the % may be the effect or the level left"}, "[5]": {"target": "Casein kinase I isoform epsilon (Homo sapiens) (UniProt P49674)", "assay": "Inhibition of CSNK1E assessed as enzyme activity at 1 uM relative to untreated control", "design": "scale not given: the % may be the effect or the level left"}, "[6]": {"target": "Ephrin type-B receptor 4 (Homo sapiens) (UniProt P54760)", "assay": "Inhibition of EPHB4 assessed as enzyme activity at 1 uM relative to untreated control", "design": "scale not given: the % may be the effect or the level left"}, "[7]": {"target": "Cyclin-dependent kinase 7 (Homo sapiens) (UniProt P50613)", "sequence (P50613 whole entry)": "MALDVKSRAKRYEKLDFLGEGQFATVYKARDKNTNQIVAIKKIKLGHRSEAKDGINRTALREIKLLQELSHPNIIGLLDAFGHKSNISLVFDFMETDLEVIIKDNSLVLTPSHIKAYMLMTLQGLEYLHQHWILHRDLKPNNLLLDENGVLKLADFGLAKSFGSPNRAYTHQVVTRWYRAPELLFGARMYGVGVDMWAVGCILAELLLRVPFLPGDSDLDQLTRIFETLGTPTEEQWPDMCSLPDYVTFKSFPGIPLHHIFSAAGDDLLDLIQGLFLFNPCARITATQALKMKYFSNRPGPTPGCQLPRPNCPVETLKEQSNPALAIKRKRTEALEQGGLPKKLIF", "assay": "Inhibition of CDK7 assessed as enzyme activity at 1 uM relative to untreated control", "design": "scale not given: the % may be the effect or the level left"}, "[8]": {"target": "Serine/threonine-protein kinase Nek9 (Homo sapiens) (UniProt Q8TD19)", "assay": "Inhibition of NEK9 assessed as enzyme activity at 1 uM relative to untreated control", "design": "scale not given: the % may be the effect or the level left"}, "[9]": {"target": "Dual specificity mitogen-activated protein kinase kinase 6 (Homo sapiens) (UniProt P52564)", "assay": "Inhibition of MEK6 assessed as enzyme activity at 1 uM relative to untreated control", "design": "scale not given: the % may be the effect or the level left"}, "[10]": {"target": "Tyrosine-protein kinase HCK (Homo sapiens) (UniProt P08631)", "sequence (P08631 2-526 limits assumed)": "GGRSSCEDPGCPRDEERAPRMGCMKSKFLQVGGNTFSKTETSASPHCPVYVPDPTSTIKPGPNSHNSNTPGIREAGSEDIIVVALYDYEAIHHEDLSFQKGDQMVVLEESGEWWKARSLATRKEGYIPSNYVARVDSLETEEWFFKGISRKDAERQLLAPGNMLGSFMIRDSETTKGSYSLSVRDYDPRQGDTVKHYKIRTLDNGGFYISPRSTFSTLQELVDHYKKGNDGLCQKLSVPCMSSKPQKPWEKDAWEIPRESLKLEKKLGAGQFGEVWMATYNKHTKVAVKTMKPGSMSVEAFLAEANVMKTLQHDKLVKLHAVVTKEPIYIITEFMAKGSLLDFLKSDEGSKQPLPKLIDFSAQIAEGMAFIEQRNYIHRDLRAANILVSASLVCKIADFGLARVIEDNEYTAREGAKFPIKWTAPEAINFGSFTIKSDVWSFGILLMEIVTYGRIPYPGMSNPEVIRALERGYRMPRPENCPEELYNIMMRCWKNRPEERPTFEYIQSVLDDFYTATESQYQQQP", "assay": "Inhibition of HCK assessed as enzyme activity at 1 uM relative to untreated control", "design": "scale not given: the % may be the effect or the level left"}, "[11]": {"target": "Dual specificity testis-specific protein kinase 1 (Homo sapiens) (UniProt Q15569)", "assay": "Inhibition of TESK1 assessed as enzyme activity at 1 uM relative to untreated control", "design": "scale not given: the % may be the effect or the level left"}, "[12]": {"target": "Serine/threonine-protein kinase 10 (Homo sapiens) (UniProt O94804)", "assay": "Inhibition of LOK assessed as enzyme activity at 1 uM relative to untreated control", "design": "scale not given: the % may be the effect or the level left"}, "[13]": {"tested_on": "Tyrosine-protein kinase ABL1 (Homo sapiens), P00519 [F317L]", "assay": "Inhibition of ABL1 F317L mutant assessed as enzyme activity at 1 uM relative to untreated control", "design": "scale not given: the % may be the effect or the level left"}, "[14]": {"target": "Serine/threonine-protein kinase RIO1 (Homo sapiens) (UniProt Q9BRS2)", "assay": "Inhibition of RIOK1 assessed as enzyme activity at 1 uM relative to untreated control", "design": "scale not given: the % may be the effect or the level left"}, "[15]": {"target": "Mitogen-activated protein kinase 7 (Homo sapiens) (UniProt Q13164)", "assay": "Inhibition of ERK5 assessed as enzyme activity at 1 uM relative to untreated control", "design": "scale not given: the % may be the effect or the level left"}, "[16]": {"target": "Mitogen-activated protein kinase kinase kinase kinase 3 (Homo sapiens) (UniProt Q8IVH8)", "assay": "Inhibition of MAP4K3 assessed as enzyme activity at 1 uM relative to untreated control", "design": "scale not given: the % may be the effect or the level left"}, "[17]": {"target": "TGF-beta receptor type-2 (Homo sapiens) (UniProt P37173)", "assay": "Inhibition of TGFBR2 assessed as enzyme activity at 1 uM relative to untreated control", "design": "scale not given: the % may be the effect or the level left"}, "[18]": {"target": "Ribosomal protein S6 kinase alpha-2 (Homo sapiens) (UniProt Q15349)", "assay": "Inhibition of RPS6KA2 kinase domain 2 assessed as enzyme activity at 1 uM relative to untreated control", "design": "scale not given: the % may be the effect or the level left"}, "[19]": {"target": "Misshapen-like kinase 1 (Homo sapiens) (UniProt Q8N4C8)", "assay": "Inhibition of MINK assessed as enzyme activity at 1 uM relative to untreated control", "design": "scale not given: the % may be the effect or the level left"}, "[20]": {"target": "Calcium/calmodulin-dependent protein kinase type II subunit beta (Homo sapiens) (UniProt Q13554)", "assay": "Inhibition of CAMK2B assessed as enzyme activity at 1 uM relative to untreated control", "design": "scale not given: the % may be the effect or the level left"}, "[21]": {"target": "Serine/threonine-protein kinase TAO3 (Homo sapiens) (UniProt Q9H2K8)", "assay": "Inhibition of TAOK3 assessed as enzyme activity at 1 uM relative to untreated control", "design": "scale not given: the % may be the effect or the level left"}, "[22]": {"assay": "Volume of distribution at steady state in Sprague-Dawley rat at 2 mg/kg, iv and 5 mg/kg, po", "assay_type": "ADME, organism-based", "settings": "in vivo, read-out: Vdss"}, "[23]": {"target": "Serine/threonine-protein kinase PAK 3 (Homo sapiens) (UniProt O75914)", "sequence (O75914 whole entry, looked up)": "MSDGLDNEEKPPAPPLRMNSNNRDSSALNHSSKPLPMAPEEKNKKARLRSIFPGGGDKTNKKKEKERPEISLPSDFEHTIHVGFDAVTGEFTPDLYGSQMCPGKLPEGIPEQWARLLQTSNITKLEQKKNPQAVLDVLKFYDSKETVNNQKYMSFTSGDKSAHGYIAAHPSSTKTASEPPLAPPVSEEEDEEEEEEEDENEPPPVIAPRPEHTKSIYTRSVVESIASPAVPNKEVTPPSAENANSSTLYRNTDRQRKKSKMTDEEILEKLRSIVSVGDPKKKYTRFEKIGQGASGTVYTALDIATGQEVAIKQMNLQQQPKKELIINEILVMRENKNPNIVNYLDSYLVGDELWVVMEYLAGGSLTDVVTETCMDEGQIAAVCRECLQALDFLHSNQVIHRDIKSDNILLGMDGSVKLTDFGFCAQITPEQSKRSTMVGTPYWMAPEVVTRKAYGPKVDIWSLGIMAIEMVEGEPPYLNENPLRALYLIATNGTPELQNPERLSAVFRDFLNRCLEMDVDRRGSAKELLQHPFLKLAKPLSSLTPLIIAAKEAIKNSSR", "assay": "Inhibition of PAK3 assessed as enzyme activity at 1 uM relative to untreated control", "design": "scale not given: the % may be the effect or the level left"}, "[24]": {"target": "Mast/stem cell growth factor receptor Kit (Homo sapiens) (UniProt P10721)", "assay": "Inhibition of KIT assessed as enzyme activity at 1 uM relative to untreated control", "design": "scale not given: the % may be the effect or the level left"}, "[25]": {"target": "Activin receptor type-2A (Homo sapiens) (UniProt P27037)", "assay": "Inhibition of ACVR2A assessed as enzyme activity at 1 uM relative to untreated control", "design": "scale not given: the % may be the effect or the level left"}, "[26]": {"target": "Serine/threonine-protein kinase BRSK2 (Homo sapiens) (UniProt Q8IWQ3)", "assay": "Inhibition of BRSK2 assessed as enzyme activity at 1 uM relative to untreated control", "design": "scale not given: the % may be the effect or the level left"}, "[27]": {"target": "Atypical kinase COQ8A, mitochondrial (Homo sapiens) (UniProt Q8NI60)", "assay": "Inhibition of ADCK3 assessed as enzyme activity at 1 uM relative to untreated control", "design": "scale not given: the % may be the effect or the level left"}, "[28]": {"target": "STE20-like serine/threonine-protein kinase (Homo sapiens) (UniProt Q9H2G2)", "sequence (Q9H2G2 whole entry, looked up)": "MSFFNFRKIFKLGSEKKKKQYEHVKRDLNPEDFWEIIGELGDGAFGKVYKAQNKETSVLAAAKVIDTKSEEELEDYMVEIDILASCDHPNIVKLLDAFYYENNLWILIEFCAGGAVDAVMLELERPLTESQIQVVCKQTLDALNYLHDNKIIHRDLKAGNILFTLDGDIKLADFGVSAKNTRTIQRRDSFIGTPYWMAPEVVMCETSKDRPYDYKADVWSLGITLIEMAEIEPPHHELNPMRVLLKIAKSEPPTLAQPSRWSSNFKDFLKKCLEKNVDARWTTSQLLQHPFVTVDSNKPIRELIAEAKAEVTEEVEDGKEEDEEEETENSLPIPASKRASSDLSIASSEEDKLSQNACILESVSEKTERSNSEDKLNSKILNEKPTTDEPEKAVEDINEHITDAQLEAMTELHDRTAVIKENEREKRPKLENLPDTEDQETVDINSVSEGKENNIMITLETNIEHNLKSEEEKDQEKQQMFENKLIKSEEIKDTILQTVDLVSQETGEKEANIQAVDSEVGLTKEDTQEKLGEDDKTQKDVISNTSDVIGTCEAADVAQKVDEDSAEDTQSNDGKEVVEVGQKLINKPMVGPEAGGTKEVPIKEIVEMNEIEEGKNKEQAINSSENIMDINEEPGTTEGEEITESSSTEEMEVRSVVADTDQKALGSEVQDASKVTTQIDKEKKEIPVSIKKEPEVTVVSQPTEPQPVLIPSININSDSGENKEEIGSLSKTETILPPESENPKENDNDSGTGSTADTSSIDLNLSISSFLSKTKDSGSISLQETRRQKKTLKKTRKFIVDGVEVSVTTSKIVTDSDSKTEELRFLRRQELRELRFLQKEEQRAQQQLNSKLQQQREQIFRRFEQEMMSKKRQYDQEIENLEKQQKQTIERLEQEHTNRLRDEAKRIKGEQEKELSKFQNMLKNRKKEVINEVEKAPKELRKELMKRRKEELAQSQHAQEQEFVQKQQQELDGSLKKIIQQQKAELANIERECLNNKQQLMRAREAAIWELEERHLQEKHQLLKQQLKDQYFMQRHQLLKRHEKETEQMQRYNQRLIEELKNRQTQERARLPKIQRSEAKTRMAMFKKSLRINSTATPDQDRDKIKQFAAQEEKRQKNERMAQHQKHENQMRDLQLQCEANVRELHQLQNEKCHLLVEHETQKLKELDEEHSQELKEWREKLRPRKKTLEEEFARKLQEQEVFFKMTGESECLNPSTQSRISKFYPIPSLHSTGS", "assay": "Inhibition of SLK assessed as enzyme activity at 1 uM relative to untreated control", "design": "scale not given: the % may be the effect or the level left"}, "[29]": {"target": "SRSF protein kinase 3 (Homo sapiens) (UniProt Q9UPE1)", "assay": "Inhibition of SRPK3 assessed as enzyme activity at 1 uM relative to untreated control", "design": "scale not given: the % may be the effect or the level left"}, "[30]": {"tested_on": "Epidermal growth factor receptor (Homo sapiens), P00533 [G719S]", "assay": "Inhibition of EGFR G719S mutant assessed as enzyme activity at 1 uM relative to untreated control", "assay_type": "protein assay", "design": "scale not given: the % may be the effect or the level left"}, "[31]": {"target": "Non-receptor tyrosine-protein kinase TYK2 (Homo sapiens) (UniProt P29597)", "assay": "Inhibition of TYK2 kinase domain 1 assessed as enzyme activity at 1 uM relative to untreated control", "design": "scale not given: the % may be the effect or the level left"}, "[32]": {"target": "Tyrosine-protein kinase ABL2 (Homo sapiens) (UniProt P42684)", "sequence (P42684 whole entry)": "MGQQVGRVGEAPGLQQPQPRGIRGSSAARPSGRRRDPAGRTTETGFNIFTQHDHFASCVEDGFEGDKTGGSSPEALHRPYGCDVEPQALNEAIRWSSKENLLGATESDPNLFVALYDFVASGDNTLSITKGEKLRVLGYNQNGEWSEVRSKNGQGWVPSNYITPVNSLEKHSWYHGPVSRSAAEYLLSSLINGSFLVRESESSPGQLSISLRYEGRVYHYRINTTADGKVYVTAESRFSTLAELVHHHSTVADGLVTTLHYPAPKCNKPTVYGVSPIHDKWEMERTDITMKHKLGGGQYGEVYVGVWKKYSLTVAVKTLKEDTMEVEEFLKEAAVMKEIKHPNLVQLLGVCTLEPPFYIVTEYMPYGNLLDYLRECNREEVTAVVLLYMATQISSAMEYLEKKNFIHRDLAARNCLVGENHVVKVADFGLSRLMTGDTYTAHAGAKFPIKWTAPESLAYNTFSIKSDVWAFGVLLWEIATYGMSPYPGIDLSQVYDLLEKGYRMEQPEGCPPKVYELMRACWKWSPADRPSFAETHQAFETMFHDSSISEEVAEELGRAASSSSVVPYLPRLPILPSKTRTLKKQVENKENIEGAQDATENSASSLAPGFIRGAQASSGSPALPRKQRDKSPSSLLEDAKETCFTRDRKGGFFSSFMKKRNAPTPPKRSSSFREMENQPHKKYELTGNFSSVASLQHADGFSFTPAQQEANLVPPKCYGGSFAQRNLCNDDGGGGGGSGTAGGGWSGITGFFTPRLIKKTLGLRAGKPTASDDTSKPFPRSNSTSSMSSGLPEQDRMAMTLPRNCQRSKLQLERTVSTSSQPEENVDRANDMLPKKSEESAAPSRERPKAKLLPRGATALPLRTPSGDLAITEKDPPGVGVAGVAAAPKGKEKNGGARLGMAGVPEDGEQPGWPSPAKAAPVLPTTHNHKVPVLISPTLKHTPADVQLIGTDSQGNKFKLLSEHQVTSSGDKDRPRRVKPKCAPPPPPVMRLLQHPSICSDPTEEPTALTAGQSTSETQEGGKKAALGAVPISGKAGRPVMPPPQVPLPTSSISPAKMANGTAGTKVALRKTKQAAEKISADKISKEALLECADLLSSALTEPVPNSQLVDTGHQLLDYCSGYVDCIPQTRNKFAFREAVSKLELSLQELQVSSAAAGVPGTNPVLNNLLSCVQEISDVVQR", "assay": "Inhibition of ABL2 assessed as enzyme activity at 1 uM relative to untreated control", "design": "scale not given: the % may be the effect or the level left"}, "[33]": {"target": "Mitogen-activated protein kinase kinase kinase 9 (Homo sapiens) (UniProt P80192)", "assay": "Inhibition of MLK1 assessed as enzyme activity at 1 uM relative to untreated control", "design": "scale not given: the % may be the effect or the level left"}, "[34]": {"target": "Calcium/calmodulin-dependent protein kinase type 1D (Homo sapiens) (UniProt Q8IU85)", "assay": "Inhibition of CAMK1D assessed as enzyme activity at 1 uM relative to untreated control", "design": "scale not given: the % may be the effect or the level left"}, "[35]": {"target": "Inhibitor of nuclear factor kappa-B kinase subunit beta (Homo sapiens) (UniProt O14920)", "sequence (O14920 whole entry)": "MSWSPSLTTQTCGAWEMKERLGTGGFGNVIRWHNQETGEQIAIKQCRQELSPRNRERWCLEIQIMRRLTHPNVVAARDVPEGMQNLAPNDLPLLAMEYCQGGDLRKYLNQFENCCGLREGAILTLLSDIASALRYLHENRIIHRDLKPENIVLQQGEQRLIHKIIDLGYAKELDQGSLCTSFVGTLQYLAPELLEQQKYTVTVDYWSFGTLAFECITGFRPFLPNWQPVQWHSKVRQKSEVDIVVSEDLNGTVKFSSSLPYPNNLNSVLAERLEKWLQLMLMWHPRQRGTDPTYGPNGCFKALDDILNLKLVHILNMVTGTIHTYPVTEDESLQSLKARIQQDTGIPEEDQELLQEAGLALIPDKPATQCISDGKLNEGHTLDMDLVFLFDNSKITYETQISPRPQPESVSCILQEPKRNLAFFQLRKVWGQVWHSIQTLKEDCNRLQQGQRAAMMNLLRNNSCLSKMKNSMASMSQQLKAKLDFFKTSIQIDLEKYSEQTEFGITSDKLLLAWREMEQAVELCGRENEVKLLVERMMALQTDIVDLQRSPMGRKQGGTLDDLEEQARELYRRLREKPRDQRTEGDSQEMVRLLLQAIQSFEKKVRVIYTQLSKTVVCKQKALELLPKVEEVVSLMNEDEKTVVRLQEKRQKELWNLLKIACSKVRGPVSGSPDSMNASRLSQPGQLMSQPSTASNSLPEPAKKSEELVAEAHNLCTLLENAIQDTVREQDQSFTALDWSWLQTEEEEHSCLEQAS", "assay": "Inhibition of IKK-beta assessed as enzyme activity at 1 uM relative to untreated control", "design": "scale not given: the % may be the effect or the level left"}, "[36]": {"target": "Mitogen-activated protein kinase 12 (Homo sapiens) (UniProt P53778)", "assay": "Inhibition of p38-gamma assessed as enzyme activity at 1 uM relative to untreated control", "design": "scale not given: the % may be the effect or the level left"}, "[37]": {"target": "Tyrosine-protein kinase Lck (Homo sapiens, UniProt P06239)", "assay": "Inhibition of LCK"}}}
{"smiles": "Cc1ccc2c(Nc3ccc(Cl)cc3)nccc2c1Nc1ncccc1-c1ncnc2[nH]cnc12.Cl.Cl.Cl", "values": [{"measurement": "Activity", "setting": "[1]", "result": 92, "unit": "%"}, {"measurement": "Activity", "setting": "[2]", "result": 99, "unit": "%"}, {"measurement": "Activity", "setting": "[3]", "result": 90, "unit": "%"}, {"measurement": "Activity", "setting": "[4]", "result": 78, "unit": "%"}, {"measurement": "Activity", "setting": "[5]", "result": 99, "unit": "%"}, {"measurement": "Activity", "setting": "[6]", "result": 6.5, "unit": "%"}, {"measurement": "Activity", "setting": "[7]", "result": 100, "unit": "%"}, {"measurement": "Activity", "setting": "[8]", "result": 89, "unit": "%"}, {"measurement": "Activity", "setting": "[9]", "result": 96, "unit": "%"}, {"measurement": "Activity", "setting": "[10]", "result": 53, "unit": "%"}, {"measurement": "Activity", "setting": "[11]", "result": 21, "unit": "%"}, {"measurement": "Activity", "setting": "[12]", "result": 0, "unit": "%"}, {"measurement": "Activity", "setting": "[13]", "result": 79, "unit": "%"}, {"measurement": "Activity", "setting": "[14]", "result": 92, "unit": "%"}, {"measurement": "Activity", "setting": "[15]", "result": 95, "unit": "%"}, {"measurement": "Activity", "setting": "[16]", "result": 85, "unit": "%"}, {"measurement": "Activity", "setting": "[17]", "result": 100, "unit": "%"}, {"measurement": "Activity", "setting": "[18]", "result": 81, "unit": "%"}, {"measurement": "Activity", "setting": "[19]", "result": 80, "unit": "%"}, {"measurement": "Activity", "setting": "[20]", "result": 100, "unit": "%"}, {"measurement": "Activity", "setting": "[21]", "result": 94, "unit": "%"}, {"measurement": "Vd", "setting": "[22]", "result": 1.9, "unit": "L/kg"}, {"measurement": "Activity", "setting": "[23]", "result": 87, "unit": "%"}, {"measurement": "Activity", "setting": "[24]", "result": 28, "unit": "%"}, {"measurement": "Activity", "setting": "[25]", "result": 100, "unit": "%"}, {"measurement": "Activity", "setting": "[26]", "result": 87, "unit": "%"}, {"measurement": "Activity", "setting": "[27]", "result": 100, "unit": "%"}, {"measurement": "Activity", "setting": "[28]", "result": 40, "unit": "%"}, {"measurement": "Activity", "setting": "[29]", "result": 100, "unit": "%"}, {"measurement": "Activity", "setting": "[30]", "result": 92, "unit": "%"}, {"measurement": "Activity", "setting": "[31]", "result": 96, "unit": "%"}, {"measurement": "Activity", "setting": "[32]", "result": 42, "unit": "%"}, {"measurement": "Activity", "setting": "[33]", "result": 100, "unit": "%"}, {"measurement": "Activity", "setting": "[34]", "result": 100, "unit": "%"}, {"measurement": "Activity", "setting": "[35]", "result": 100, "unit": "%"}, {"measurement": "Activity", "setting": "[36]", "result": 100, "unit": "%"}, {"measurement": "IC50", "setting": "[37]", "result": 83, "unit": "nM"}]}
